Experiments:
MCP1/CCL2 = MCP1/CCL2 secretion by ELISA in primary human hepatocytes with FFA + TNFα; format: cell-based
MCP-1 = MCP-1 chemokine secretion in primary human hepatic stellate cells stimulated with TNFα; format: cell-based; conditions: hepatic stellate cells, two donors
IL-6 [1] = experiment: IL-6 cytokine secretion in primary human hepatic stellate cells stimulated with TNFα; format: cell-based; conditions: hepatic stellate cells, two donors
IL-6 [2] = experiment: LPS-induced IL-6 secretion in primary human monocyte-derived macrophages; conditions: for IL-6 Measurements, Mean: LPS, baseline subtracted values
TNF-α = experiment: LPS-induced TNF-α secretion in primary human monocyte-derived macrophages; conditions: for TNF-α Measurements Mean (baseline subtracted): 0.15 ng/mL LPS
Col1a1 = Col1a1 gene expression (RT-qPCR) in primary human hepatic stellate cells stimulated with TGFβ1; format: cell-based; conditions: for Col1a1 Fold Expression Relative to Control, Mean: single amino acid
Procollagen Iα1 = Procollagen Iα1 secretion (ELISA) in primary human hepatic stellate cells stimulated with TGFβ1; format: cell-based; conditions: hepatic stellate cells, three donors
[3] = Donor 2, Conc. 153 μM (baseline)
[4] = Donor 2, Conc. 749 μM (baseline)

CC(C)C[C@H](N)C(=O)O [Leucine, L-Leucine]
MCP1 expression relative to Control, Mean (MCP1/CCL2; Donor 1, Conc. 153 μM): 5.92E−16 | MCP1 expression relative to Control, Mean (MCP1/CCL2; Donor 1, Conc. 3054 μM): 3.34 | MCP1 expression relative to Control, Mean (MCP1/CCL2; Donor 1, Conc. 7635 μM): 1.896 | MCP1 expression relative to Control, Mean (MCP1/CCL2; Donor 1, Conc. 15270 μM): −1.368 | MCP1 expression relative to Control, Mean (MCP1/CCL2; Donor 2, Conc. 153 μM): −4.7E−15 | MCP1 expression relative to Control, Mean (MCP1/CCL2; Donor 2, Conc. 3054 μM): 16.11 | MCP1 expression relative to Control, Mean (MCP1/CCL2; Donor 2, Conc. 7635 μM): −2.988 | MCP1 expression relative to Control, Mean (MCP1/CCL2; Donor 2, Conc. 15270 μM): −26.6436 | MCP-1 secretion (summary in words) (MCP-1): no significant impact on MCP-1 secretion | IL-6 secretion (summary in words) (IL-6 [1]): no significant effect on IL-6 secretion | IL-6 Measurements, Mean (IL-6 [2]; Donor 1, Conc. 153 μM (baseline)): 0 | LPS-induced IL-6 secretion (summary in words) (IL-6 [2]; Donor 2): increased IL-6 secretion | IL-6 Measurements, Mean (IL-6 [2]; [3]): 7.11E−15 | IL-6 Measurements, Mean (IL-6 [2]; Donor 2, Conc. 3054 μM): 29.61 | IL-6 Measurements, Mean (IL-6 [2]; Donor 2, Conc. 7635 μM): 30.46 | IL-6 Measurements, Mean (IL-6 [2]; Donor 2, Conc. 15270 μM): 47.6 | TNF-α Measurements Mean (baseline subtracted) (TNF-α; Donor 1, Conc. 3054 μM): 42.04 | TNF-α Measurements Mean (baseline subtracted) (TNF-α; Donor 1, Conc. 7635 μM): −23.04 | TNF-α Measurements Mean (baseline subtracted) (TNF-α; Donor 1, Conc. 15270 μM): −46.21 | LPS-induced TNF-α secretion (summary in words) (TNF-α; Donor 2): increased TNF-α secretion | TNF-α Measurements Mean (baseline subtracted) (TNF-α; [3]): 0 | TNF-α Measurements Mean (baseline subtracted) (TNF-α; Donor 2, Conc. 3054 μM): 31.74 | TNF-α Measurements Mean (baseline subtracted) (TNF-α; Donor 2, Conc. 7635 μM): 41.98 | TNF-α Measurements Mean (baseline subtracted) (TNF-α; Donor 2, Conc. 15270 μM): 46.69

NC(=O)CC[C@H](N)C(=O)O [Glutamine, L-Glutamine]
MCP1 expression relative to Control, Mean (MCP1/CCL2; Donor 1, Conc. 749 μM): 0 | MCP1 expression relative to Control, Mean (MCP1/CCL2; Donor 1, Conc. 3747 μM): −0.8981 | MCP1 expression relative to Control, Mean (MCP1/CCL2; Donor 1, Conc. 11242 μM): −9.001 | MCP1 expression relative to Control, Mean (MCP1/CCL2; Donor 1, Conc. 22484 μM): −21.8392 | MCP1 expression relative to Control, Mean (MCP1/CCL2; Donor 2, Conc. 749 μM): 2.84E−14 | MCP1 expression relative to Control, Mean (MCP1/CCL2; Donor 2, Conc. 3747 μM): −45.0574 | MCP1 expression relative to Control, Mean (MCP1/CCL2; Donor 2, Conc. 11242 μM): −90.6558 | MCP1 expression relative to Control, Mean (MCP1/CCL2; Donor 2, Conc. 22484 μM): −138.873 | MCP-1 secretion (summary in words) (MCP-1): reduced MCP1 secretion in both donors but was only statistically significant in one of two donors | IL-6 secretion (summary in words) (IL-6 [1]): significantly reduced IL-6 secretion in both donors | LPS-induced IL-6 secretion (summary in words) (IL-6 [2]; Donor 1): increased IL-6 secretion | IL-6 Measurements, Mean (IL-6 [2]; Donor 1, Conc. 749 μM (baseline)): 0 | LPS-induced IL-6 secretion (summary in words) (IL-6 [2]; Donor 2): increased IL-6 secretion | IL-6 Measurements, Mean (IL-6 [2]; [4]): 2.37E−15 | IL-6 Measurements, Mean (IL-6 [2]; Donor 2, Conc. 3747 μM): 22.52 | IL-6 Measurements, Mean (IL-6 [2]; Donor 2, Conc. 11242 μM): 63.31 | IL-6 Measurements, Mean (IL-6 [2]; Donor 2, Conc. 22484 μM): 34.39 | LPS-induced IL-6 secretion (summary in words) (IL-6 [2]; Donor 3): significantly increased IL-6 secretion | TNF-α Measurements Mean (baseline subtracted) (TNF-α; Donor 1, Conc. 3747 μM): −45.7 | TNF-α Measurements Mean (baseline subtracted) (TNF-α; Donor 1, Conc. 11242 μM): −65.24 | TNF-α Measurements Mean (baseline subtracted) (TNF-α; Donor 1, Conc. 22484 μM): −103.07 | LPS-induced TNF-α secretion (summary in words) (TNF-α; Donor 2): increased TNF-α secretion | TNF-α Measurements Mean (baseline subtracted) (TNF-α; [4]): −9.5E−15 | TNF-α Measurements Mean (baseline subtracted) (TNF-α; Donor 2, Conc. 3747 μM): 9.338 | TNF-α Measurements Mean (baseline subtracted) (TNF-α; Donor 2, Conc. 11242 μM): 20.04 | TNF-α Measurements Mean (baseline subtracted) (TNF-α; Donor 2, Conc. 22484 μM): 11.5 | LPS-induced TNF-α secretion (summary in words) (TNF-α; Donor 3): increased TNF-α secretion | TNF-α Measurements Mean (baseline subtracted) (TNF-α; Donor 3, Conc. 749 μM (baseline)): 0 | TNF-α Measurements Mean (baseline subtracted) (TNF-α; Donor 3, Conc. 3747 μM): 1.936 | TNF-α Measurements Mean (baseline subtracted) (TNF-α; Donor 3, Conc. 11242 μM): 18 | TNF-α Measurements Mean (baseline subtracted) (TNF-α; Donor 3, Conc. 22484 μM): 29.14

N=C(N)NCCC[C@H](N)C(=O)O [Arginine, L-Arginine]
MCP1/CCL2 secretion (summary in words) (MCP1/CCL2; primary human hepatocytes, two healthy donors): increased MCP1 secretion | MCP-1 secretion (summary in words) (MCP-1): no significant impact on MCP-1 secretion | IL-6 secretion (summary in words) (IL-6 [1]): no significant effect on IL-6 secretion | Col1a1 gene expression (summary in words) (Col1a1; hepatic stellate cells, three donors): did not significantly change Col1a1 gene expression in any donor | Col1a1 Fold Expression Relative to Control, Mean (Col1a1; second donor (Table 27), 1088 μM): 0.99 fold | Col1a1 Fold Expression Relative to Control, Mean (Col1a1; second donor (Table 27), 2720 μM): 1.15 fold | Col1a1 Fold Expression Relative to Control, Mean (Col1a1; second donor (Table 27), 5440 μM): 1.15 fold | Col1a1 Fold Expression Relative to Control, Mean (Col1a1; second donor (Table 29), 1088 μM): 0.95 fold | Col1a1 Fold Expression Relative to Control, Mean (Col1a1; second donor (Table 29), 2720 μM): 0.99 fold | Col1a1 Fold Expression Relative to Control, Mean (Col1a1; second donor (Table 29), 5440 μM): 1.02 fold | procollagen Iα1 secretion (summary in words) (Procollagen Iα1): significantly increased procollagen Iα1 secretion in two of three donors | LPS-induced IL-6 secretion (summary in words) (IL-6 [2]; Donor 1): increased IL-6 secretion

Reference: patent publication US11737999B2, “Amino acid compositions and methods for the treatment of post-acute sequelae of COVID-19” (AXCELLA HEALTH INC., priority 2021, dated 2023)
